The source of these data is ChEMBL document CHEMBL1201862, “PubChem BioAssay data set” (2004).

Assay [1] can be described thus: Luminescence Cell-Based Dose Confirmation HTS to Identify Inhibitors of Platelet Dense Granule Release. [Related pubchem assays: 1663 (Primary HTS), 1678 (Summary of Project)]. Type of assay: functional.
Assay [2] concerns the target T1, Rac GTPase-activating protein 1 (Homo sapiens, UniProt Q9H0H5).
T1 sequence (Q9H0H5 whole entry): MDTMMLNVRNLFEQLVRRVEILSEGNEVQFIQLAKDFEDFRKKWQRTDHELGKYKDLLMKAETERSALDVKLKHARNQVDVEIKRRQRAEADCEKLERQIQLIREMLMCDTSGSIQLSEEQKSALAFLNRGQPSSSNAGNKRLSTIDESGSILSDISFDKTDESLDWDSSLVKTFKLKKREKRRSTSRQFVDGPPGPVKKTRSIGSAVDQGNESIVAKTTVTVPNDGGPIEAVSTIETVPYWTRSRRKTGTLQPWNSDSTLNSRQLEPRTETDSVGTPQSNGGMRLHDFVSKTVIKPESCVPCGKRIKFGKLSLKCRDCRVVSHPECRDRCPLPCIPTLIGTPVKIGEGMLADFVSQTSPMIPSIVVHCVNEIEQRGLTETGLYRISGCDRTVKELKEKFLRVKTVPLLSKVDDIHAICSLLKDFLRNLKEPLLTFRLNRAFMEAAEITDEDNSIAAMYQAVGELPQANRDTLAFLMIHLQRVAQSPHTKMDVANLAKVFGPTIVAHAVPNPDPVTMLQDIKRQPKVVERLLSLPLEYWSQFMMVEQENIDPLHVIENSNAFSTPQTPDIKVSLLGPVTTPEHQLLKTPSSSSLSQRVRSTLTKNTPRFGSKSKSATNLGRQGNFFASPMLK
Kind of assay: MgcRacGAP GTPase-activating activity inhibitors, confirmation, biochemical, ADP Hunter fluorescence, primary and confirmatory (AID 624330). Format: functional.

Assay [3] is described as follows: inhibitors of SNCA 5'UTR-driven reporter translation, confirmation, H4 neuroglioma cells, luminescence (AID 1988). Type of assay: functional, cell-based.
The nature of assay [4]: inhibitors of firefly luciferase expression or activity, dose response, H4 neuroglioma cells, luminescence (AID 1990). Type of assay: functional, cell-based.
The nature of assay [5]: Luminescence Cell-Based Dose Response HTS to Identify Inhibitors of 5'UTR Stem-Loop Driven Prion Protein mRNA Translation in H4 Neuroglioblastoma Cells. [Related pubchem assays: 1827 (Project Summary), 1813 (Primary HTS)]. Type of assay: functional.
Assay [6] is described as follows: cytotoxicity toward DRD oncogenic fibroblasts, dose response, cell-based, non-viral oncogenic, luminescence (AID 1934). Format: functional. To be noted: Homo sapiens.
Assay [7] concerns BJ. The assay is described as follows: cytotoxicity toward Ras-transformed BJeLR fibroblasts, dose response, cell-based, alamar blue fluorescence, cherrypicked samples (AID 2631).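 Further: confirmatory dose-response assay in RAS-dependent BJ fibroblasts engineered with TERT, LT and ST, with cytotoxicity read by fluorescence.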 Format: functional. To be noted: Homo sapiens. In general terms: The colour change of resazurin is a common sign of viable cells or microbes.
For another assay, the target named is Nonstructural protein 1 (Influenza A virus, UniProt Q194T2). Type of assay: functional, Influenza A virus (A/California/07/2009(H1N1)).
The test system of assay [8] is BJ. Kind of assay: cells. Format: functional, cell-based. To be noted: Homo sapiens.
The target of assay [9] is Luciferin 4-monooxygenase (Photinus pyralis, UniProt P08659). The assay is described as follows: firefly luciferase enzyme inhibitors, dose response, biochemical, luminescence (AID 1891).
Assay [10] can be described thus: HEK293T cytotoxicity, dose response, cytotoxicity control for miR-122 modulator project, cell-based, activator set, cherry-pick (AID 720690).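 Further: HEK293T human cells scored for general mammalian cytotoxicity.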 Type of assay: functional.
Assay [11] has as its system BJ. The assay is described as follows: cytotoxicity toward BJ-TERT fibroblasts, dose response, cell-based, RAS-independent, luminescence (AID 1933). Type of assay: functional. To be noted: Homo sapiens.
Assay [12] relates to BJ. The assay is described as follows: cytotoxicity toward BJ-TERT-LT-ST fibroblasts, dose response, cell-based, RAS-independent, luminescence (AID 1935).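 Further: BJ fibroblasts immortalized with TERT plus LT and ST oncogenes.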 The following applies: Homo sapiens. Type of assay: functional.
Assay [13] is described as follows: HEK293T cytotoxicity, dose response, cytotoxicity control for miR-122 modulator project, cell-based, inhibitor set, cherry-pick, set 2 (AID 720697). Type of assay: functional.
In the next assay the target is Large T antigen (Simian virus 40, UniProt P03070). Type of assay: functional, Betapolyomavirus macacae.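 Further: Confirmatory-stage PubChem screen for compounds that inhibit SV40 T antigen.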
The nature of assay [14]: ADAM10 inhibitors, peptide cleavage, dose response, biochemical, QFRET (AID 743254).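 Further: ADAM10 enzyme with the DM2 quenched FRET peptide as substrate; EDANS fluorescence gain as the protease cuts the substrate; inhibitor potency against ADAM10 proteolytic activity.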
In assay [15] the target is Disintegrin and metalloproteinase domain-containing protein 17 (Homo sapiens, UniProt P78536). Kind of assay: ADAM17 protease inhibitors, dose response, counter-screen for ADAM10 exosite inhibitor project, biochemical, quenched FRET substrate (AID 743253). In general terms: The purpose of a counterscreen is to sort out artefacts and off-target activity.
The target of assay [16] is Potassium channel subfamily K member 9 (Homo sapiens, UniProt Q9NPC2). Kind of assay: TASK3 (KCNK9) channel inhibitors, thallium flux, SAR follow-up, selectivity assay for TASK1 inhibitor project, cell-based, FluxOR thallium flux, concentration-response (AID 652211).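 Further: potency is for inhibitors of the channel.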 Type of assay: functional.
For assay [17], the target named is Potassium channel subfamily K member 3 (Homo sapiens, UniProt O14649). Kind of assay: TASK1 (KCNK3) potassium channel inhibitors, SAR follow-up, CHO cells, FluxOR thallium flux (AID 652212). Format: functional.
The target in the next assay is Major prion protein (Homo sapiens, UniProt P04156). Type of assay: functional, cell-based.
Assay [18] is described as follows: cells.
Assay [19] can be described thus: MITF: Counter assay: A375 proliferation Measured in Cell-Based System Using Plate Reader - 2084-03_Inhibitor_Dose_DryPowder_Activity_Set8. Format: functional. To be noted: A-375.
A short description of assay [20]: MITF Orthogonal Assay: SK-MEL-5 CTG Assay Measured in Cell-Based System Using Plate Reader - 2084-02_Inhibitor_Dose_DryPowder_Activity_Set7. Format: functional.
Assay [21] can be described thus: TRPM1 promoter luciferase reporter signal decrease, dose response, MITF inhibitor project, cell-based, SK-MEL-5, dry powder, set 8 (AID 624430). Format: functional. (Reporter assays use an easily measured gene product as a stand-in for the process of interest.)
For another assay, the target named is NS3 (Hepatitis C virus, UniProt A3EZJ3). The assay is described as follows: HCV NS3 helicase inhibitor potency, dose response, biochemical, fluorescence polarization, ChemBridge library (AID 743264).
Assay [22] can be described thus: CEM21 lymphoblast cell cytotoxicity, dose response, cytotoxicity control for viral fusion inhibitor project, CellTiter-Glo luminescence, cherry-picked (AID 652042).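 Further: potency for signal decrease meaning cytotoxicity.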 Format: functional, cell-based.
Assay [23] in a line: ZM109 Env clade C HIV-1 fusion inhibitors, dose response, HeLa effector, CEM target cells, luciferase, cherry-pick (AID 652058). Format: functional, cell-based.
In assay [24] the target is Photoreceptor-specific nuclear receptor (Homo sapiens, UniProt Q9Y5X4). Type of assay: functional, cell-based.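 Further: CHO-S cells with Gal4-NCOR and VP16-NR2E3 two-hybrid luciferase reporter.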
Assay [25] in a line: inhibitors of CMV-promoter luciferase reporter, dose response, counter-screen for Pax8 inhibitor project, cell-based, HEK293, luminescence, dry powder (AID 743020). Type of assay: functional.
Assay [26] can be described thus: inhibitors of HIV Env-driven cell fusion, dose response, cherry-pick (AID 652057). Type of assay: functional, cell-based.
For the next assay, the target named is Paired box protein Pax-8 (Homo sapiens, UniProt Q06710). The assay is described as follows: inhibitors of PAX8-driven TPO luciferase reporter, dose response, RMG-I cells, cherry-pick (AID 687027).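 Further: luciferase reporter driven by Pax8 target thyroperoxidase promoter measured by SteadyGlo luminescence.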 Type of assay: functional, cell-based.
Assay [27] can be described thus: inhibitors of clade B AD8 Env fusion, dose response, cell-based, cherry-pick (AID 652062).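 Further: luciferase signal from cell-cell fusion driven by HIV-1 clade B AD8 Env; potency is for inhibitors of fusion seen as a drop in luminescence.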 Type of assay: functional.
A short description of assay [28]: off-target signal loss in HeLa-CEM21 co-culture – HeLa F-luc CTL cells, cherry-picked, counter-screen for HIV-1 Env fusion inhibitor project, dose response (AID 652040).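 Further: potency for signal decrease marking cytotoxic or nonspecific inhibition.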 Type of assay: functional, cell-based.
Assay [29] can be described thus: A375 melanoma cell cytotoxicity, dose response, counter-screen for MITF inhibitor project, CellTiter-Glo luminescence, dry powder, set 2 (AID 624489).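 Further: actives are compounds lowering A375 viability meaning general cytotoxicity.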 Type of assay: functional, cell-based. The following applies: A-375.
A short description of assay [30]: A375 melanoma cell viability loss, dose response, counter-screen for MITF inhibitor project, CellTiter-Glo luminescence, dry powder, set 4 (AID 624364).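 Further: A375 melanoma cells are MITF independent so this is a counter screen.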 Type of assay: functional, cell-based. The following applies: A-375.
Assay [31] in a line: HepG2 cell cytotoxicity, dose response, cytotoxicity control, ATP luminescence, cherry-pick, activator set 2 (AID 1053143). Format: functional, cell-based.
Assay [32] addresses Oxysterols receptor LXR-beta (Homo sapiens, UniProt P55055). Format: functional, cell-based.
Assay [33] can be described thus: Luminescence Cell-Based Dose Confirmation HTS to Identify Activators of 5'UTR Stem-Loop Driven Alpha-Synuclein mRNA Translation in H4 Neuroglioblastoma Cells. [Related pubchem assays: 1829 (Project Summary), 1814 (Primary HTS)]. Format: functional.
Assay [34] can be described thus: cells. Type of assay: functional, cell-based.
Assay [35] in a line: cells. Type of assay: functional, cell-based. This is another data set of the same source.
In the next assay the test system is H4. Kind of assay: Luminescence Cell-Based Dose Response HTS to Identify Activators of 5'UTR Stem-Loop Driven Prion Protein mRNA Translation in H4 Neuroglioblastoma Cells. [Related pubchem assays: 1829 (Project Summary), 1814 (Primary HTS)]. Type of assay: functional. To be noted: Homo sapiens.
The nature of assay [36]: Luminescence Cell-Based Dose Response HTS to Identify Activators of Luciferase Translation or Activity in H4 […] Cells. [Related pubchem assays: 1829 (Project Summary), 1814 (Primary HTS)]. Format: functional.
Assay [37] deals with Protein disulfide-isomerase (Homo sapiens, UniProt P07237). The assay is described as follows: PDI inhibitors, insulin turbidity readout, confirmation, biochemical, dry powder samples, set 2 (AID 652146).

The source made the active and inactive calls. Where only a bound is given, the exact number is not on record here.

With `Oc1ccc(/C=N/Nc2nccnc2Cl)c(O)c1`, the EC50 in assay [1] is 254 nM (active); in [3], 3.7 µM (active); in [4], 7.09 µM (active); in [5], 6.33 µM (active); in assay [6] it was 13.4 µM (active); in the assay with BJ [7], 6.12 µM (active). The EC50 in the assay on BJ [8] is 5.07 µM (active); in [9], 1.05 µM (active); in the assay with BJ [11], 10.7 µM (active); in the assay with BJ [12], 10.9 µM (active). For the same compound, the figures for the IC50 (in assay [2]; on Nonstructural protein 1; on Large T antigen) were 12.7 µM (active), 9.11 µM (active) and 16.7 µM (active), respectively. The AC50 is 16.5 µM (active) in assay [10] and 3.85 µM (active) in assay [13].
For the compound `COc1cc(OC)c(N(C)S(=O)(=O)c2cccc(C(=O)OCC(=O)c3c[nH]c4ccccc34)c2)cc1Cl`, the IC50 in assay [14] and in assay [15] was > 69.5 µM (inactive) throughout.
Consider `CCOc1ccccc1NC(=O)c1cccc(NC(=O)CC2CCCCC2)c1`, for which the IC50 in [16] is 1.92 µM (active); in assay [17] it was 217 nM (active).
Take `Cc1nc(SCC(=O)Nc2cc(C(N)=O)cc(C(N)=O)c2)c2c(C)c(C)sc2n1`: the IC50 on Major prion protein is 11.6 µM (inactive); in “cells [18]” it was > 138 µM (inactive).
`CCN1CCN(C2=C(Nc3ccc(I)cc3)C(=O)c3ccccc3C2=O)CC1`: the results for the AC50 in assay [19], in [20] and in [21] were 16.8 µM (active), 7.26 µM (active) and 1.48 µM (active), respectively.
As to `O=C1C=CC(=O)N1c1ccc(Br)cc1[N+](=O)[O-]`, at NS3, the IC50 is 22.4 µM (inactive).
In the case of `CCC1(O)C(=O)OCc2c1cc1n(c2=O)Cc2cc3c(N)cccc3nc2-1` (stereo not drawn) [RS-9-Aminocamptothecin], the AC50 in assay [22] was 2.67 µM (active); in [23], 857 nM (active); in assay [25], < 6.17 µM (active); in assay [26] it was < 260 nM (active); at Paired box protein Pax-8 it was < 260 nM (active); in assay [27], 368 nM (active). In [28], the AC50 was < 260 nM (active). The IC50 in [24] was 1.83 µM (active).
Turning to `CC(=O)N(C)C1=C(N2CCN(C)CC2)C(=O)c2ccccc2C1=O`, the AC50 in assay [29] is 5.65 µM (active); in assay [30], 12.1 µM (active).
Regarding `O=C(NCCc1ccccc1)c1cc(-c2ccco2)on1`, the AC50 in [31] was 26 µM (active). Moreover, the EC50 is > 67.5 µM (inactive) in [32]; 3.89 µM (active) in assay [33]; 11.8 µM (active) in the assay “cells [34]”; 339 µM (active) in “cells [35]”; > 120 µM (not active) in the assay on H4; 116 nM (active) in [36].
Turning to `O=C(Nc1ccccc1)C1(CCOc2ccccc2)CCN(Cc2ccc(O)c(Cl)c2)CC1`, the AC50 in assay [37] was 15 µM (active).

Broadly, the EC50 is the concentration at which the effect is half-maximal. What is called IC50 is the midpoint of a concentration-inhibition curve. Usually AC50 stands for the concentration giving half of the maximal activity seen.
